Columns and labels:
hA2b/CHO = hA2b/CHO (Homo sapiens (Human), UniProt P29275); assay: cAMP inhibition assay in hA2b/CHO cells, 10 μM adenosine; type: cell-based; conditions: read-out: cAMP & FLIPR IC50 (nM) hA2b;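 also: cells exposed to compound 30 min at 37 °C, then stimulated with adenosine a further 30 min, cAMP read after 60 min at room temperature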
Method: (§1) hA2a/CHO, hA2b/CHO, hA3/CHO and mA2a/CHO (Genscript) were plated at 5×10^3 cells/well into 384-well polystyrene plates at the day of experiment. Compounds were pre-incubated with cells for 30 min at 37° C., 5% CO2. Then 10 μM adenosine was added to the cells and incubated for 30 min at 37° C., 5% CO2. Detection reagent (CISBIO) was added and the plates were incubated for 60 min at room temperature. The signal was captured by Envision.

mA2a/CHO = mA2a/CHO (Mus musculus (Mouse), UniProt Q60613); assay: cAMP inhibition assay in mA2a/CHO cells, 10 μM adenosine; type: cell-based; conditions: read-out: cAMP & FLIPR IC50 (nM) mA2a;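 also: compounds preincubated 30 min at 37 °C before the adenosine challenge, then 30 min further stimulation, readout after 60 min detection reagent incubation at room temperature in 384-well plates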
Method: as §1

[1] = target: hADORA1/CHO (hA1 expressing) cells (Homo sapiens (Human), UniProt P30542); assay: cell-based; conditions: FLIPR inhibition, 10 μM adenosine, read-out: cAMP & FLIPR IC50 (nM) hA1
hA2a/CHO = hA2a/CHO (Homo sapiens (Human), UniProt P29274); assay: cAMP inhibition assay in hA2a/CHO cells, 10 μM adenosine; type: cell-based; conditions: read-out: cAMP & FLIPR IC50 (nM) hA2a;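 also: compounds added to cells 30 min ahead of adenosine, then a further 30 min at 37 °C with adenosine before cAMP detection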
hA2a/CHO, sequence (P29274 whole entry): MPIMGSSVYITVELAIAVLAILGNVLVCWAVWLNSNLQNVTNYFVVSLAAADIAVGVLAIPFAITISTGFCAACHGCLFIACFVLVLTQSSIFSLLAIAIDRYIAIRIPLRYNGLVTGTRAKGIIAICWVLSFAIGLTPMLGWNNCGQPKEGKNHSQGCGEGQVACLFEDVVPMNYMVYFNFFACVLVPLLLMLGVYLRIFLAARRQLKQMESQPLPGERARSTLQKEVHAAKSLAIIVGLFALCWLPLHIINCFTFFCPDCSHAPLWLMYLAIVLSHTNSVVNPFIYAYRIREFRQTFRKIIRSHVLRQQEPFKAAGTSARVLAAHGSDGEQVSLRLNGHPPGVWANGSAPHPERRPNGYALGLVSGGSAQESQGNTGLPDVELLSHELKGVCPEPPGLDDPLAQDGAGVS
Method: as §1

mA2a/CHO, sequence (Q60613 whole entry): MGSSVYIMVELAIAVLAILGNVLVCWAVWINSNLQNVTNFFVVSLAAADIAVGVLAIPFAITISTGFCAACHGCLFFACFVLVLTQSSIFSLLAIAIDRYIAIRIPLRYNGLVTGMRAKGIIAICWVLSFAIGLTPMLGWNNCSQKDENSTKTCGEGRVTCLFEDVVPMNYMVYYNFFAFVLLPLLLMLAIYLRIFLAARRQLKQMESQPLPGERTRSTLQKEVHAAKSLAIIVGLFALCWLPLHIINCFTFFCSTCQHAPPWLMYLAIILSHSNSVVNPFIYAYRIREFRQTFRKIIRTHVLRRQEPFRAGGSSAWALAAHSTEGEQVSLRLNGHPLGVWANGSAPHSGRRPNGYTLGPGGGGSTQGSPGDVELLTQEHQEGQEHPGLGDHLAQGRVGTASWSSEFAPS
hADORA1/CHO (hA1 expressing) cells, sequence (P30542 whole entry): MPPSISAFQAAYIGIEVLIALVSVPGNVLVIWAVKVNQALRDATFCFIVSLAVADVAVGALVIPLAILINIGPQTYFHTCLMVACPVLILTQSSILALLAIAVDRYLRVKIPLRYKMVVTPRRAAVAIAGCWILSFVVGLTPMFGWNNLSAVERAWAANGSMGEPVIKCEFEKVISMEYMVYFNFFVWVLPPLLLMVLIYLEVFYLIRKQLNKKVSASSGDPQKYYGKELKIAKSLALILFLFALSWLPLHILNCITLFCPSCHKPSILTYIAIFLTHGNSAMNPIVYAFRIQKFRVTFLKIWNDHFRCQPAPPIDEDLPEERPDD
hA2b/CHO, sequence (P29275 whole entry): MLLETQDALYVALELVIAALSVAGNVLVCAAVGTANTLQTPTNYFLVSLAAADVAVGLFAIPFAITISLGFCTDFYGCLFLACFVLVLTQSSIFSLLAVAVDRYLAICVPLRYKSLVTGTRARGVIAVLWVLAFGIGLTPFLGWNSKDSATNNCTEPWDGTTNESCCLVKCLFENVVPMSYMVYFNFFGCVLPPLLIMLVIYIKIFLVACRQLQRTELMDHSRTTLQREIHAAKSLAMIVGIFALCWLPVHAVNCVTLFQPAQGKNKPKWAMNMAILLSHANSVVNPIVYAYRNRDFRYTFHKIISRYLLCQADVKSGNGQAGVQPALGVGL

Structure (SMILES)	IC50 (hA2b/CHO) [nM]	IC50 (mA2a/CHO) [nM]	IC50 [1] [nM]	IC50 (hA2a/CHO) [nM]
Cc1cnc2ccc(-c3nc(C(=O)NCC4CCCN4C)c(N)nc3-c3ncco3)cn12 (single isomer, unassigned) [Example 120]	775	167	–	–
Cc1cnc2ccc(-c3nc(C(=O)NCC4CCCN4C)c(N)nc3-c3ncco3)cn12 (single isomer, unassigned) [Example 121]	747	204	–	–
Cc1cnc2ccc(-c3nc(C(=O)NC[C@H]4CC(C)(C)CN4C)c(N)nc3-c3ncco3)cn12 (single isomer, unassigned; isomer 2) [Example 230, 3-amino-6-(3-methylimidazo[1,2-a]pyridin-6-yl)-5-(oxazol-2-yl)-N-((1,4,4-trimethylpyrrolidin-2-yl)methyl) pyrazine-2-carboxamide (isomer 2)]	–	–	6000	15
Cc1cnc2ccc(-c3nc(C(=O)NCC4CCCN(C)C4=O)c(N)nc3-c3ncco3)cn12 (single isomer, unassigned; isomer 2) [Example 254, 3-amino-N-((1-methyl-2-oxopiperidin-3-yl)methyl)-6-(3-methylimidazo[1,2-a]pyridin-6-yl)-5-(oxazol-2-yl) pyrazine-2-carboxamide (isomer 2)]	–	–	99	0.7
Cc1cnc2ccc(-c3nc(C(=O)NCC4CCN(C)C4=O)c(N)nc3-c3ccc(F)cc3)cn12 (single isomer, unassigned; isomer 2) [Example 256, 3-amino-5-(4-fluorophenyl)-N-((1-methyl-2-oxopyrrolidin-3-yl)methyl)-6-(3-methylimidazo[1,2-a]pyridin-6-yl) pyrazine-2-carboxamide (isomer 2)]	–	–	34	1.8
Cc1cnc2ccc(-c3nc(C(=O)NC(C)C4CCCO4)c(N)nc3-c3ncco3)cn12 (single isomer, unassigned; isomer 2) [Example 262, 3-amino-6-(3-methylimidazo[1,2-a]pyridin-6-yl)-5-(oxazol-2-yl)-N-(1-(tetrahydrofuran-2-yl)ethyl)pyrazine-2-carboxamide (isomer 2)]	–	–	11600	12
Cc1cnc2ccc(-c3nc(C(=O)NCC(C4CC4)N(C)C)c(N)nc3-c3ncco3)cn12 (single isomer, unassigned; isomer 2) [Example 269, 3-amino-N-(2-cyclopropyl-2-(dimethylamino)ethyl)-6-(3-methylimidazo[1,2-a]pyridin-6-yl)-5-(oxazol-2-yl) pyrazine-2-carboxamide (isomer 2)]	–	–	> 10000	37
Cc1cnc2ccc(-c3nc(C(=O)NCC4CC(C)(C)O4)c(N)nc3-c3ncco3)cn12 (single isomer, unassigned; isomer 2) [Example 270, 3-amino-N-((4,4-dimethyloxetan-2-yl)methyl)-6-(3-methylimidazo[1,2-a]pyridin-6-yl)-5-(oxazol-2-yl)pyrazine-2-carboxamide (isomer 2)]	–	–	300	7.4
Cc1cnc2ccc(-c3nc(C(=O)NC(C)C4CCCO4)c(N)nc3-c3ncco3)cn12 (single isomer, unassigned; isomer 3) [Example 274, 3-amino-6-(3-methylimidazo[1,2-a]pyridin-6-yl)-5-(oxazol-2-yl)-N-(1-(tetrahydrofuran-2-yl)ethyl)pyrazine-2-carboxamide (isomer 3)]	–	–	275	0.9
Cc1cnc2ccc(-c3nc(C(=O)NC(C)C4CCCO4)c(N)nc3-c3ncco3)cn12 (single isomer, unassigned; isomer 4) [Example 258, 3-amino-6-(3-methylimidazo[1,2-a]pyridin-6-yl)-5-(oxazol-2-yl)-N-(1-(tetrahydrofuran-2-yl)ethyl)pyrazine-2-carboxamide (isomer 4)]	–	–	2510	8.1
Cc1cnc2ccc(-c3nc(CNC(=O)C4CCCO4)c(N)nc3-c3ccc(F)cc3)cn12 (stereo in doubt) [Cmpd. 268, (2S)—N-[[3-amino-5-(4-fluorophenyl)-6-[3-methyl-imidazo-[1,2-a]pyridin-6-yl]pyrazin-2-yl]methyl]oxolane-2-carboxamide]	–	–	6.7	0.2
Cc1cnc2ccc(-c3nc(C(=O)NCc4cccc(N5CC(CN(C)C)C5)n4)c(N)nc3-c3ncco3)cn12 [Cmpd. 261, 3-amino-N-((6-(3-((dimethylamino)methyl)azetidin-1-yl)pyridin-2-yl)methyl)-6-(3-methylimidazo[1,2-a]pyridin-6-yl)-5-(oxazol-2-yl)pyrazine-2-carboxamide]	–	–	158	0.4
Cc1cc(-c2nc(C(=O)NCc3ccccc3OC(F)(F)F)c(N)nc2-c2ccc(F)cc2)cc(C)n1 [Example 65, 3-amino-6-(2,6-dimethylpyridin-4-yl)-5-(4-fluorophenyl)-N-(2-(trifluoromethoxy)benzyl)pyrazine-2-carboxamide]	–	50	–	19
CNCCOc1cccnc1CNC(=O)c1nc(-c2ccc3ncn(C)c3c2)c(-c2ccc(F)cc2)nc1N [Example 115, 3-amino-5-(4-fluorophenyl)-6-(1-methyl-1H-1,3-benzodiazol-6-yl)-N-([3-[2-(methylamino)ethoxy]pyridin-2-yl]methyl)pyrazine-2-carboxamide]	596	12	–	–
Cc1cnc2ccc(-c3nc(C(=O)NCc4cccc(N5C[C@H]6CC[C@@H](C5)N6C)n4)c(N)nc3-c3ncco3)cn12 [Example 173, 3-amino-N-((6-((1R,5S)-8-methyl-3,8-diazabicyclo[3.2.1]octan-3-yl)pyridin-2-yl)methyl)-6-(3-methylimidazo[1,2-a]pyridin-6-yl)-5-(oxazol-2-yl)pyrazine-2-carboxamide]	–	–	6500	5.1
Cc1cnc2ccc(-c3nc(C(=O)NCc4cccc(C5CCN(C)CC5)n4)c(N)nc3-c3ncco3)cn12 [Example 176, 3-amino-6-(3-methylimidazo[1,2-a]pyridin-6-yl)-N-((6-(1-methylpiperidin-4-yl)pyridin-2-yl)methyl)-5-(oxazol-2-yl) pyrazine-2-carboxamide]	–	–	599	11
Cc1cnc2ccc(-c3nc(C(=O)NCCn4ccccc4=O)c(N)nc3-c3ncco3)cn12 [Example 237, 3-amino-6-(3-methylimidazo[1,2-a]pyridin-6-yl)-5-(oxazol-2-yl)-N-(2-(2-oxopyridin-1(2H)-yl)ethyl)pyrazine-2-carboxamide]	–	–	71	5.1
Cc1cnc2ccc(-c3nc(C(=O)NCc4c(F)cccc4F)c(N)nc3N3CCOCC3)cn12 [Example 238, 3-amino-N-(2,6-difluorobenzyl)-6-(3-methylimidazo[1,2-a]pyridin-6-yl)-5-morpholinopyrazine-2-carboxamide]	–	–	401	0.5
Cc1cnc2ccc(-c3nc(C(=O)NCC4CCOCC4)c(N)nc3-c3ncco3)cn12 [Example 239, 3-amino-6-(3-methylimidazo[1,2-a]pyridin-6-yl)-5-(oxazol-2-yl)-N-((tetrahydro-2H-pyran-4-yl)methyl) pyrazine-2-carboxamide]	–	–	2960	4.8
Cc1cnc2ccc(-c3nc(C(=O)N[C@@H]4CCOC4)c(N)nc3-c3ncco3)cn12 [Example 255, (R)-3-amino-6-(3-methylimidazo [1,2-a]pyridin-6-yl)-5-(oxazol-2-yl)-N-(tetrahydrofuran-3-yl)pyrazine-2-carboxamide]	–	–	6850	20
Cc1cnc2ccc(-c3nc(CNC(=O)[C@H]4CCOC4)c(N)nc3-c3ccc(F)cc3)cn12 [Example 264, (S)-N-((3-amino-5-(4-fluorophenyl)-6-(3-methylimidazo[1,2-a]pyridin-6-yl)pyrazin-2-yl)methyl)tetrahydrofuran-3-carboxamide]	–	–	84	25
Cc1cnc2ccc(-c3nc(CNC(=O)[C@@H]4CCCO4)c(N)nc3-c3ccc(F)cc3)cn12 [Example 265, (S)-N-((3-amino-5-(4-fluorophenyl)-6-(3-methylimidazo[1,2-a]pyridin-6-yl)pyrazin-2-yl)methyl)tetrahydrofuran-2-carboxamide]	–	–	26	7.3
Cc1cnc2ccc(-c3nc(C(=O)N[C@H]4C[C@H](N(C)C)C4)c(N)nc3-c3ncco3)cn12 [Example 271-2, Trans-3-amino-N-(3-(dimethylamino)cyclobutyl)-6-(3-methylimidazo[1,2-a]pyridin-6-yl)-5-(oxazol-2-yl)pyrazine-2-carboxamide]	–	–	865	23
Cc1cnc2ccc(-c3nc(CNC(=O)[C@@H]4CCOC4)c(N)nc3-c3ccc(F)cc3)cn12 [Example 275, (R)-N-((3-amino-5-(4-fluorophenyl)-6-(3-methylimidazo[1,2-a]pyridin-6-yl)pyrazin-2-yl)methyl)tetrahydrofuran-3-carboxamide]	–	–	39	6.1
Cc1cnc2ccc(-c3nc(C(=O)NCc4cccc(N5CCOCC5)n4)c(N)nc3-c3ncco3)cn12 [Example 276, 3-amino-6-[3-methylimidazo[1,2-a]pyridin-6-yl]-N-[[6-(morpholin-4-yl)pyridin-2-yl]methyl]-5-(1,3-oxazol-2-yl)pyrazine-2-carboxamide]	–	–	3070	3.1
Cc1cnc2ccc(-c3nc(C(=O)N[C@H]4CCOC4)c(N)nc3-c3ncco3)cn12 [Example 277, (S)-3-amino-6-(3-methylimidazo[1,2-a]pyridin-6-yl)-5-(oxazol-2-yl)-N-(tetrahydrofuran-3-yl)pyrazine-2-carboxamide]	–	–	6560	12
Cc1cnc2ccc(-c3nc(CNC(=O)[C@H]4CCCN4C)c(N)nc3-c3cccc(F)c3)cn12 [Example 278, (R)—N-((3-amino-5-(3-fluorophenyl)-6-(3-methylimidazo[1,2-a]pyridin-6-yl)pyrazin-2-yl)methyl)-1-methylpyrrolidine-2-carboxamide]	–	–	12	0.4

Reference: patent publication US10898481B2 (priority 2018, dated 2021)
